# Earlier results as cited in patent publication US20080045551A1, “PHARMACEUTICAL COMBINATION COMPRISING AN ADENOSINE A1 ANTAGONIST AND A RADIOCONTRAST MEDIA” (priority 2006, published 2008).
# System: radiocontrast media induced nephropathy
# Settings: intensive care patients; Greiner 2005
smiles,measurement,value
Cn1c(=O)c2[nH]cnc2n(C)c1=O [theophylline],prophylaxis of radiocontrast media induced nephropathy (CIN),prophylactic properties
